Values joined by “and” are separate entries in the source; they are usually repeats but may differ in a detail not shown here. Identical values can stand only once. Inconclusive results and toxic doses are left out.

This assay concerns BDF1 mice, P388 leukemia ip, median survival T/C. The experiment in a line: NCI In Vivo Anticancer Drug Screen. Data for tumor model P388 Leukemia (intraperitoneal) in B6D2F1 (BDF1) mice. As to conditions: endpoint: median survival time, higher = longer survival. In short, it runs like this:
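Transplantable tumour in mice; compound vs vehicle dosing; survival scored; ratio of treated to control reported.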

The mark [1] stands for this setting: dose: 100.0 mg/kg/injection, schedule: Q01DX009 (ip), vehicle: saline.
The mark [2] stands for this setting: dose: 400.0 mg/kg/injection, schedule: Q01DX009 (ip), vehicle: saline.
The mark [3] stands for this setting: dose: 100.0 mg/kg/injection, schedule: Q04DX003 (ip), vehicle: saline with Tween-80.
Where [4] appears, read: dose: 200.0 mg/kg/injection, schedule: Q04DX003 (ip), vehicle: saline with Tween-80.
[5] abbreviates: dose: 400.0 mg/kg/injection, schedule: Q04DX003 (ip), vehicle: saline with Tween-80.
Where [6] appears, read: dose: 100.0 mg/kg/injection, schedule: Q01DX009 (ip), vehicle: saline with Tween-80.
The mark [7] stands for this setting: dose: 200.0 mg/kg/injection, schedule: Q01DX009 (ip), vehicle: saline with Tween-80.
Setting [8] is: dose: 400.0 mg/kg/injection, schedule: Q01DX009 (ip), vehicle: saline with Tween-80.
The mark [9] stands for this setting: dose: 12.5 mg/kg/injection, schedule: Q01DX009 (ip), vehicle: saline with Tween-80.
Where [10] appears, read: dose: 25.0 mg/kg/injection, schedule: Q01DX009 (ip), vehicle: saline with Tween-80.
Setting [11] is: dose: 50.0 mg/kg/injection, schedule: Q01DX009 (ip), vehicle: saline with Tween-80.

For `COCCOC1=C(N2CC2)C(=O)C(OCCOC)=C(N2CC2)C1=O`, the T/C (dose: 0.26 mg/kg/injection, schedule: Q01DX009 (ip), vehicle: saline) was 99 % of control; the T/C (dose: 0.4 mg/kg/injection, schedule: Q01DX009 (ip), vehicle: saline) is 108 % of control; the T/C (dose: 0.88 mg/kg/injection, schedule: Q01DX009 (ip), vehicle: saline) was 163 % of control; the T/C (dose: 0.88 mg/kg/injection, schedule: Q04DX003 (ip), vehicle: saline) was 121 % of control; the T/C (dose: 0.9 mg/kg/injection, schedule: Q01DX009 (ip), vehicle: saline) is 108 % of control; the T/C (dose: 1.0 mg/kg/injection, schedule: Q01DX009 (ip), vehicle: saline) is 171 % of control and 180 % of control. In addition, the T/C runs as follows: (dose: 1.32 mg/kg/injection, schedule: Q01DX009 (ip), vehicle: saline) 209 % of control; (dose: 1.32 mg/kg/injection, schedule: Q04DX003 (ip), vehicle: saline) 113 % of control; (dose: 2.0 mg/kg/injection, schedule: Q01DX009 (ip), vehicle: saline) 223 % of control and 263 % of control and 220 % of control; (dose: 3.0 mg/kg/injection, schedule: Q01DX009 (ip), vehicle: saline) 231 % of control; (dose: 3.0 mg/kg/injection, schedule: Q04DX003 (ip), vehicle: saline) 152 % of control; (dose: 3.3 mg/kg/injection, schedule: Q04DX003 (ip), vehicle: saline) 186 % of control. The T/C is, setting by setting: (dose: 4.0 mg/kg/injection, schedule: Q01DX009 (ip), vehicle: saline) 109 % of control and 115 % of control; (dose: 5.0 mg/kg/injection, schedule: Q04DX003 (ip), vehicle: saline) 209 % of control; (dose: 6.25 mg/kg/injection, schedule: Q04DX003 (ip), vehicle: saline) 236 % of control; (dose: 7.5 mg/kg/injection, schedule: Q04DX003 (ip), vehicle: saline) 272 % of control; (dose: 12.5 mg/kg/injection, schedule: Q04DX003 (ip), vehicle: saline) 118 % of control.

`O=C1NC(O)CCN1C1OC(CO)C(O)C1O` (stereo unspecified): the T/C (dose: 50.0 mg/kg/injection, schedule: Q01DX009 (ip), vehicle: saline) is 89 % of control; the T/C under setting [1] was 100 % of control and 113 % of control; the T/C (dose: 100.0 mg/kg/injection, schedule: Q04DX003 (ip), vehicle: saline) is 116 % of control; the T/C (dose: 200.0 mg/kg/injection, schedule: Q01DX009 (ip), vehicle: saline) was 101 % of control and 104 % of control; the T/C (dose: 200.0 mg/kg/injection, schedule: Q04DX003 (ip), vehicle: saline) was 108 % of control; the T/C under setting [2] was 100 % of control and 117 % of control. The T/C (dose: 400.0 mg/kg/injection, schedule: Q04DX003 (ip), vehicle: saline) is 95 % of control.

Consider `Cc1ccccc1NC(=O)c1ccc([N+](=O)[O-])cc1`, for which the T/C was 96 % of control under setting [3], 108 % of control under setting [4] and 96 % of control under setting [5].

Turning to `CC(=O)O[C@@]1(C)[C@@H](C)C(=O)O[C@@H]2CCN3CC=C(COC(=O)[C@]1(C)O)[C@H]23`, the T/C reads like this: (dose: 25.0 mg/kg/injection, schedule: Q01DX010 (ip), vehicle: carboxymethylcellulose (CMC)) 110 % of control; (dose: 50.0 mg/kg/injection, schedule: Q01DX010 (ip), vehicle: carboxymethylcellulose (CMC)) 95 % of control; (dose: 100.0 mg/kg/injection, schedule: Q01DX010 (ip), vehicle: carboxymethylcellulose (CMC)) 100 % of control.

As to `N=C(N)SCc1c2ccccc2c(CSC(=N)N)c2ccccc12`, the T/C is, setting by setting: (dose: 2.5 mg/kg/injection, schedule: Q01DX010 (ip), vehicle: saline) 183 % of control; (dose: 5.0 mg/kg/injection, schedule: Q01DX010 (ip), vehicle: saline) 220 % of control; (dose: 10.0 mg/kg/injection, schedule: Q01DX010 (ip), vehicle: saline) 235 % of control and 195 % of control; (dose: 20.0 mg/kg/injection, schedule: Q01DX010 (ip), vehicle: saline) 208 % of control and 215 % of control.

On to `C1CCCC2(CCC1)OCCO2`, for which the T/C (dose: 50.0 mg/kg/injection, schedule: Q04DX003 (ip), vehicle: saline with Tween-80) is 94 % of control; the T/C under setting [6] was 109 % of control; the T/C under setting [3] was 100 % of control; the T/C under setting [7] is 100 % of control; the T/C under setting [4] was 115 % of control and 119 % of control; the T/C under setting [8] was 109 % of control. In addition, the T/C under setting [5] was 112 % of control and 120 % of control.

For the molecule `Cc1ccc(C(=O)N/N=C/C(=O)O)cc1`, the T/C runs as follows: (dose: 12.5 mg/kg/injection, schedule: Q04DX003 (ip), vehicle: Klucel (hydroxypropylcellulose) (HPC)) 113 % of control; (dose: 25.0 mg/kg/injection, schedule: Q04DX003 (ip), vehicle: Klucel (hydroxypropylcellulose) (HPC)) 106 % of control; (dose: 50.0 mg/kg/injection, schedule: Q04DX003 (ip), vehicle: Klucel (hydroxypropylcellulose) (HPC)) 116 % of control; (dose: 100.0 mg/kg/injection, schedule: Q04DX003 (ip), vehicle: Klucel (hydroxypropylcellulose) (HPC)) 106 % of control; (dose: 200.0 mg/kg/injection, schedule: Q04DX003 (ip), vehicle: Klucel (hydroxypropylcellulose) (HPC)) 122 % of control.

Turning to `O=c1[nH]c(=O)n(CC(O)c2ccc(Cl)s2)cc1F` (stereo unspecified), the T/C reads like this: under setting [4], 103 % of control; under setting [5], 117 % of control.

With `Cc1cnc2ncn(Cc3c[nH]c(=O)[nH]c3=O)c(=O)c2c1`, the T/C runs as follows: (dose: 12.5 mg/kg/injection, schedule: Q01DX001 (ip), vehicle: saline with Tween-80) 105 % of control and 112 % of control; (dose: 25.0 mg/kg/injection, schedule: Q01DX001 (ip), vehicle: saline with Tween-80) 104 % of control and 109 % of control; (dose: 50.0 mg/kg/injection, schedule: Q01DX001 (ip), vehicle: saline with Tween-80) 102 % of control.

Regarding `O=C(O)c1ccc(=O)oc1`, the T/C is, setting by setting: under setting [9], 108 % of control; under setting [10], 99 % of control and 100 % of control; under setting [11], 108 % of control; under setting [6], 124 % of control; under setting [7], 124 % of control.

With `NC(=O)NC(c1ccccc1)C(NC(N)=O)c1ccccc1` (stereo unspecified), the T/C under setting [11] is 110 % of control, the T/C under setting [6] was 104 % of control and the T/C under setting [7] was 91 % of control.

Turning to `Cc1cc2c(C(C)C)c(O)c(O)cc2c(O)c1-c1c(C)cc2c(C(C)C)c(O)c(O)cc2c1O`, the T/C was 91 % of control under setting [9], 100 % of control under setting [10] and 120 % of control under setting [11].

With `O=C(NC(=S)N1CCOCC1)c1ccccc1`, the T/C runs as follows: under setting [11], 100 % of control; under setting [6], 90 % of control; under setting [7], 100 % of control; under setting [8], 97 % of control.

For `Cn1c([N+](=O)[O-])cnc1CSc1nc(-c2ccccc2)no1`, the T/C by setting is: under setting [3], 93 % of control; under setting [4], 117 % of control; under setting [5], 93 % of control.

On to `O=C1CC/C(=N\O)N1`, for which the T/C (dose: 75.0 mg/kg/injection, schedule: Q01DX009 (ip), vehicle: saline) is 93 % of control and the T/C (dose: 150.0 mg/kg/injection, schedule: Q01DX009 (ip), vehicle: saline) was 86 % of control.

On to `OCC12CCCCC1CC1(CC2)OCCO1` (stereo unspecified), for which the T/C reads like this: under setting [1], 92 % of control; under setting [3], 95 % of control; under setting [4], 90 % of control; under setting [2], 96 % of control; under setting [5], 90 % of control.

As for `Cc1ccccc1Nc1n[nH]c(=S)s1`, the T/C was 95 % of control under setting [11], 95 % of control under setting [6] and 104 % of control under setting [7].

Consider `OCC1OC(Nc2ccccc2/C=N\O)C(O)C1O` (stereo unspecified), for which the T/C under setting [6] is 111 % of control and the T/C under setting [7] was 94 % of control.

Source of the values: PubChem BioAssay AID328 (DTP/NCI, 2004).
